Measurements: publication PMC3214178, “High-yield production of aromatic peroxygenase by the agaric fungus Marasmius rotula” (AMB Express, 2011)
Blank lines part the entries; values can stand above or below the compound they belong to.

Assays:
Type in all cases: biochemical
[1] = test system: T1, MroAPO (Marasmius rotula aromatic peroxygenase); assay: spectrophotometric initial rates, ABTS cation radical at […] nm; Lineweaver-Burk; settings: 2 mM H2O2, sodium phosphate/citrate buffer pH 4.5, 25°C
T1 construct: native secreted heme-thiolate enzyme purified by FPLC from culture liquid of wild-type fungus

[2] = test system: T1, MroAPO (Marasmius rotula aromatic peroxygenase); assay: spectrophotometric initial rates, dimeric DMP quinone at […] nm; Lineweaver-Burk; settings: 2 mM H2O2, sodium phosphate/citrate buffer pH 5.5, 25°C
[3] = test system: T1, MroAPO (Marasmius rotula aromatic peroxygenase); assay: spectrophotometric initial rates, 1-naphthol at […] nm; Lineweaver-Burk; settings: H2O2 co-substrate (table note 2 mM; methods give start with 20 μl H2O2 (200 μM)), sodium phosphate/citrate buffer pH 5.5, acetonitrile as substrate solvent, 25°C
[4] = test system: T1, MroAPO (Marasmius rotula aromatic peroxygenase); assay: spectrophotometric initial rates, veratraldehyde at […] nm; Lineweaver-Burk; settings: 2 mM H2O2, sodium phosphate/citrate buffer pH 5.5, 25°C

Compound: CCn1c(=NN=c2sc3cc(S(=O)(=O)O)ccc3n2CC)sc2cc(S(=O)(=O)O)ccc21 [ABTS]
Km [1]: 71 µM

Km [2]: 133 µM
Compound: COc1cccc(OC)c1O [DMP]

Compound: c1ccc2ccccc2c1 [Naphthalene]
Km [3]: 791 µM

Compound: COc1ccc(CO)cc1OC [Veratryl alcohol]
Km [4]: 279 µM
